Tests used:
[1] = biological target: T1, Adrenergic receptor alpha-1 (Rattus norvegicus, UniProt P15823+P23944+P43140); experiment: Displacement of [3H]prazosin from alpha1 adrenergic receptor in rat cerebral cortex after 30 mins by Microbeta scintillation counting analysis; assay type: tissue-based
T1 sequence (P15823 whole entry): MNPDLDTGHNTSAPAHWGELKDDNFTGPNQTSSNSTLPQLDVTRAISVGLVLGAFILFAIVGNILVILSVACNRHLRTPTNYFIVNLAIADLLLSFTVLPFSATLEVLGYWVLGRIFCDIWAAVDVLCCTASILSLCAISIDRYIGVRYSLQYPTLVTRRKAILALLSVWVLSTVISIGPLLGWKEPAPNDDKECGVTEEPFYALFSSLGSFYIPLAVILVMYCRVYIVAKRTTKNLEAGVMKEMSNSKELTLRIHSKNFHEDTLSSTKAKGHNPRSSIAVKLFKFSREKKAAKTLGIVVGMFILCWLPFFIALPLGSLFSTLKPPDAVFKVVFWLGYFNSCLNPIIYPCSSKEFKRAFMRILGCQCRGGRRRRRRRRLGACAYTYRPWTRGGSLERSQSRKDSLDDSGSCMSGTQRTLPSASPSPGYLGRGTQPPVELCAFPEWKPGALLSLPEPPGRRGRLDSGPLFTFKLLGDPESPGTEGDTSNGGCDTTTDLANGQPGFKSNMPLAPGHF
T1 sequence (P23944 whole entry): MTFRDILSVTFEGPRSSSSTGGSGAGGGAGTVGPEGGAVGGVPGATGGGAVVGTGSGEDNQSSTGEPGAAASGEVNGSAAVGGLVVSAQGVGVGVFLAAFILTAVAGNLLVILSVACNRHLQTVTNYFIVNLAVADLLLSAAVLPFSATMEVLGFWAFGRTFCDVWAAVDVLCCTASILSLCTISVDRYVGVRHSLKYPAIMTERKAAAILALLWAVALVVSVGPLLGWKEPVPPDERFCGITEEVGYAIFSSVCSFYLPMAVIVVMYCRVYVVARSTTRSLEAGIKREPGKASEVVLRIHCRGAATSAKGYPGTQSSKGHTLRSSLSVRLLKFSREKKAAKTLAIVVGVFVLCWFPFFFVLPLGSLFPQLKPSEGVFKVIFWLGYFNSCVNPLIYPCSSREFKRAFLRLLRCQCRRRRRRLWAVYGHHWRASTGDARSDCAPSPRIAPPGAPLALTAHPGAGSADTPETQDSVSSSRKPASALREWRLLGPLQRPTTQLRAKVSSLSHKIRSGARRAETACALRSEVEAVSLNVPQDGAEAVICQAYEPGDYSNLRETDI
T1 sequence (P43140 whole entry): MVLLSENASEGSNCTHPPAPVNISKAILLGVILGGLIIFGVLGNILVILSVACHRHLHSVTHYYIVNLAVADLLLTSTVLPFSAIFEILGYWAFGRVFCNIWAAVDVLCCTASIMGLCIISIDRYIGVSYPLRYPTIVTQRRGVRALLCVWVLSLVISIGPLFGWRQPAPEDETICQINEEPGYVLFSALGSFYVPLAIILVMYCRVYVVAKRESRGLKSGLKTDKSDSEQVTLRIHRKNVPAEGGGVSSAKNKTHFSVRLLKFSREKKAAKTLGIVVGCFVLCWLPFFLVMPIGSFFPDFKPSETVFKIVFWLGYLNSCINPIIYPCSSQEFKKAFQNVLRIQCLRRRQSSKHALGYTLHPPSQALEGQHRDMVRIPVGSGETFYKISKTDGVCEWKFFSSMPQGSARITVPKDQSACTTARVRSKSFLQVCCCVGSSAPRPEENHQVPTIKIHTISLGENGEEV

[2] = biological target: T2, 5-hydroxytryptamine receptor 1A (Homo sapiens, UniProt P08908); experiment: Displacement of [3H]-8-OH-DPAT from human recombinant 5-HT1A receptor expressed in HEK293 cell membrane after 1 hr by Microbeta scintillation counting analysis; assay type: cell membranes
T2 sequence (P08908 whole entry): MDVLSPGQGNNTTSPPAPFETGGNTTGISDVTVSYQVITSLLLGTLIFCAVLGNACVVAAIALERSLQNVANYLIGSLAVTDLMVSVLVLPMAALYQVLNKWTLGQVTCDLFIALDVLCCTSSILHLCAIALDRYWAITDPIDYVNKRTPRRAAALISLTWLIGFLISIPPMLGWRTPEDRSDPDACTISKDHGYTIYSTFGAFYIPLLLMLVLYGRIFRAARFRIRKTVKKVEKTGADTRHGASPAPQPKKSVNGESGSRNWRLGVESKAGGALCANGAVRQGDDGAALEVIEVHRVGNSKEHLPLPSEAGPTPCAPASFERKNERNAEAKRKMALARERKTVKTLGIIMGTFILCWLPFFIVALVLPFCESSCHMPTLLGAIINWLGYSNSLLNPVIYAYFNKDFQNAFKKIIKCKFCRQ

[3] = biological target: 5-hydroxytryptamine receptor 7 (Homo sapiens, UniProt P34969); experiment: Displacement of [3H]-5-CT from human recombinant 5-HT7 receptor expressed in HEK293 cell membrane after 1 hr by Microbeta scintillation counting analysis; assay type: cell membranes
[4] = biological target: 5-hydroxytryptamine receptor 6 (Homo sapiens, UniProt P50406); experiment: Displacement of [3H]-LSD from human recombinant 5-HT6 receptor expressed in HEK293 cell membrane after 1 hr by Microbeta scintillation counting analysis; assay type: cell membranes
[5] = biological target: T3, Alpha-1A adrenergic receptor (Rattus norvegicus, UniProt P43140); experiment: Antagonist activity at alpha1A adrenoceptor in Wistar (Krf:(WI) WU) rat endothelium-denuded tail artery assessed as inhibition of noradrenaline-induced contraction after 30 mins; conditions: read-out: pA2 (converted)
T3 sequence (P43140 whole entry): T1 sequence (P43140 whole entry)

[6] = biological target: T4, Alpha-1D adrenergic receptor (Rattus norvegicus, UniProt P23944); experiment: Antagonist activity at alpha1D adrenoceptor in Wistar (Krf:(WI) WU) rat endothelium-denuded thoracic aorta assessed as inhibition of noradrenaline-induced contraction after 30 mins; conditions: read-out: pA2 (converted)
T4 sequence (P23944 whole entry): T1 sequence (P23944 whole entry)

[7] = biological target: T5, Alpha-1B adrenergic receptor (Mus musculus, UniProt P97717); experiment: Antagonist activity at alpha1B-adrenoceptor in Albino swiss mouse spleen assessed as inhibition of noradrenaline-induced contraction after 30 mins; conditions: read-out: pA2 (converted)
T5 sequence (P97717 whole entry): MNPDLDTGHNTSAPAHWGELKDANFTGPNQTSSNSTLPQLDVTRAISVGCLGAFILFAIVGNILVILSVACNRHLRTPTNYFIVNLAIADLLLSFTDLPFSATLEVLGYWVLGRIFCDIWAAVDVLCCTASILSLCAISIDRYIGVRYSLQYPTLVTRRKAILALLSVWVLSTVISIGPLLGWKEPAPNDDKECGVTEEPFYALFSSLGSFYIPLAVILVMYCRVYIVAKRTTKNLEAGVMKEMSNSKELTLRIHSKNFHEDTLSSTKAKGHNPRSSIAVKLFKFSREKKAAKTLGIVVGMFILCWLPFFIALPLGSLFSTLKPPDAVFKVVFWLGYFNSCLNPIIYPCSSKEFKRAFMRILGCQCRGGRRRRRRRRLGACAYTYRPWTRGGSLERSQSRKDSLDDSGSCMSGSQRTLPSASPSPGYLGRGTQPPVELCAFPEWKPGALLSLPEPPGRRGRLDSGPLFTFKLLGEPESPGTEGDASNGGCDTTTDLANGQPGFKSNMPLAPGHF

[8] = biological target: T6, 5-hydroxytryptamine receptor 3A (Homo sapiens) (UniProt P46098); experiment: Reversible inhibition of human 5-HT3A expressed in xenopus oocytes assessed as decrease in 5-HT-activated chloride current at […] by two-electrode voltage clamp technique; assay type: cell-based
T6 sequence (whole entry): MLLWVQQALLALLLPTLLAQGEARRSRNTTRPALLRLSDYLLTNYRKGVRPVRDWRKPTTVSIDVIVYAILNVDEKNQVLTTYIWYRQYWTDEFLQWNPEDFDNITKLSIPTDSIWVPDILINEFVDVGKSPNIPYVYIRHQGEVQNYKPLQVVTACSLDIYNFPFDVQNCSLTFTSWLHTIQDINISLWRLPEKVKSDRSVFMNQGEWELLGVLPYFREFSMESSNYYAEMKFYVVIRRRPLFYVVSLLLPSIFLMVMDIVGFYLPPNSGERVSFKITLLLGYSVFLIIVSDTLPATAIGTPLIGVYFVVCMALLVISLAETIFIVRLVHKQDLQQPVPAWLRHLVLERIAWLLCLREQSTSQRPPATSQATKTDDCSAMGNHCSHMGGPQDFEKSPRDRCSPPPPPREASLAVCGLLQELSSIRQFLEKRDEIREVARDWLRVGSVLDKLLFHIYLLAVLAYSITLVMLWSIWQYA

[9] = tested on: HEK293; experiment: Selectivity ratio of Ki for alpha1 adrenergic receptor in rat cerebral cortex to Ki for human recombinant 5-HT7 receptor expressed in HEK293 cell membrane; assay type: cell-based
[10] = tested on: HEK293; experiment: Selectivity ratio of Ki for human recombinant 5-HT1A receptor expressed in HEK293 cell membrane to Ki for human recombinant 5-HT7 receptor expressed in HEK293 cell membrane; assay type: cell-based

Chain of 5-hydroxytryptamine receptor 6 (P50406 whole entry): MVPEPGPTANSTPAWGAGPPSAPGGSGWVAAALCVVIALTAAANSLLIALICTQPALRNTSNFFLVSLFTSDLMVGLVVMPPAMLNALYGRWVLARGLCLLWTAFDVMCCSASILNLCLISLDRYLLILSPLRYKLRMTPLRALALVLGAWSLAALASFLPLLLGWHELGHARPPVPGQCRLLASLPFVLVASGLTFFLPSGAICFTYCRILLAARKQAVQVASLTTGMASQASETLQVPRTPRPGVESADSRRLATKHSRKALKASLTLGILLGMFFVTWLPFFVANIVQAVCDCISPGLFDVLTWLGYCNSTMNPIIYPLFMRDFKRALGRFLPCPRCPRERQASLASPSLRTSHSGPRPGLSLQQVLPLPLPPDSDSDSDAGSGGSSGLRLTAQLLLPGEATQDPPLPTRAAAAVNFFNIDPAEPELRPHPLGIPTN
Chain of 5-hydroxytryptamine receptor 7 (P34969 whole entry): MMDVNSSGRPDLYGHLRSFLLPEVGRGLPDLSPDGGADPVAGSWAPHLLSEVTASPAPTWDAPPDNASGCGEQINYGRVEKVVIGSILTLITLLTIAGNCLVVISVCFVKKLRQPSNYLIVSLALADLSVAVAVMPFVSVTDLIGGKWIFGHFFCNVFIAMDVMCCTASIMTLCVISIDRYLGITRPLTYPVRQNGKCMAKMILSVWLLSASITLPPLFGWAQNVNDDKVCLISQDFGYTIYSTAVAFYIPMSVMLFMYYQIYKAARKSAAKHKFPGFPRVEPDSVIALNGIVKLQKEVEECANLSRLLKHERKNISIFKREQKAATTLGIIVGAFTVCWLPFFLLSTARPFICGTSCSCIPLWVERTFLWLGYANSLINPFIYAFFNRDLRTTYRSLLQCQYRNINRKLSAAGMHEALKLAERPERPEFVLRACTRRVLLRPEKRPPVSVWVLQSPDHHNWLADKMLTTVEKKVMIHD

Structure (SMILES)	Ki [1] [nM]	Ki [2] [nM]	Ki [3] [nM]	Ki [4] [nM]	Kb [5] [nM]	Kb [6] [nM]	Kb [7] [nM]	inhibition [8] [%]	Ratio Ki [9]	Ratio Ki [10]
CN1C(=O)N(CCCCCN2CCN(c3ccccc3)CC2)C(C)(c2ccccc2)C1=O.Cl (stereo not given)	7.3	135	–	9600	38.6	7.31	48.8	–	–	–
COc1ccccc1N1CCN(CC(O)CN2C(=O)NC(C)(c3ccc(F)cc3)C2=O)CC1.Cl (stereo not given)	181.1	–	–	10800	–	–	–	16.6	–	–
COc1ccccc1N1CCN(CCCN2C(=O)N(C)C(=O)C2(c2ccccc2)c2ccccc2)CC1	–	6.5	210	29100	–	–	–	–	–	–
COc1ccccc1N1CCN(CCCCN2C(=O)N(C)C(=O)C2(c2ccccc2)c2ccccc2)CC1	–	0.8	16	3570	–	–	–	–	–	–
CN1C(=O)N(CCCCCN2CCN(c3ccccc3F)CC2)C(C)(c2ccccc2)C1=O.Cl (stereo not given)	11.3	124	157	25500	48.3	3.01	7.21	–	–	–
CC1(C)C(=O)N(Cc2ccccc2)C(=O)N1CCCCCN1CCN(c2ccccc2)CC1.Cl	68	79	70	4370	–	–	–	14.3	–	–
CN1C(=O)N(CC(O)CN2CCN(c3ccccc3)CC2)C(c2ccccc2)(c2ccccc2)C1=O (stereo not given)	–	324	353	20400	–	–	–	–	–	–
CC1(C)C(=O)N(Cc2ccc(F)cc2)C(=O)N1CCCCCN1CCN(c2ccc(F)cc2F)CC1.Cl	38.8	299	123	8100	–	–	–	–	–	–
COc1ccccc1N1CCN(CCCCCN2C(=O)N(Cc3ccccc3)C(=O)C2(C)C)CC1.Cl	42.6	26	72	8610	–	–	–	–	–	–
CCOc1ccccc1N1CCN(CCCN2C(=O)N(C)C(=O)C2(c2ccccc2)c2ccccc2)CC1	2600	5.5	95	4140	–	–	–	–	–	–
CC1(C)C(=O)N(Cc2ccccc2)C(=O)N1CCCCCN1CCN(c2ccc(F)cc2F)CC1.Cl	71.5	235	172	7470	–	–	–	–	–	–
COc1ccccc1N1CCN(CCCCCN2C(=O)N(C)C(=O)C2(C)c2ccccc2)CC1.Cl (stereo not given)	42.3	23.3	34	14600	–	–	–	19.8	–	–

The next compounds have a lower Ki [4] than those just listed; values first:

Ki [1] [nM]	Ki [2] [nM]	Ki [3] [nM]	Ki [4] [nM]	Kb [5] [nM]	Kb [6] [nM]	Kb [7] [nM]	inhibition [8] [%]	Structure (SMILES)	Ratio Ki [9]	Ratio Ki [10]
6.7	13.2	77	3070	–	–	–	36.9	CN1C(=O)N(CCCCCN2CCN(c3ccccc3)CC2)C(c2ccccc2)(c2ccccc2)C1=O.Cl	–	–
97.2	45	122	2930	–	–	–	–	COc1cccc(N2CCN(CCCCCN3C(=O)N(Cc4ccccc4)C(=O)C3(C)C)CC2)c1.Cl	–	–
758.5	2180	456	2880	–	–	–	–	CC1(C)C(=O)N(Cc2ccc(Cl)cc2Cl)C(=O)N1CCCCCN1CCN(c2ccc(Cl)cc2)CC1.Cl	–	–
71	76	135	2510	–	–	–	–	CC1(C)C(=O)N(Cc2ccccc2)C(=O)N1CCCCCN1CCN(c2ccccc2F)CC1.Cl	–	–
68.4	201	45	1940	–	–	–	–	CC1(C)C(=O)N(Cc2ccccc2)C(=O)N1CCCCCN1CCN(c2ccc(F)cc2)CC1.Cl	–	–
36.8	305	46	1760	–	–	–	17.2	CC1(C)C(=O)N(Cc2ccc(F)cc2)C(=O)N1CCCCCN1CCN(c2ccc(F)cc2)CC1.Cl	–	–
968.8	88	31	395	–	–	–	13.8	CC1(C)C(=O)N(Cc2ccc(Cl)cc2Cl)C(=O)N1CCCCCN1CCN(c2cccc(Cl)c2Cl)CC1.Cl	31	3
673	301	78	314	–	–	–	–	CC1(C)C(=O)N(Cc2ccc(Cl)cc2Cl)C(=O)N1CCCCCN1CCN(c2ccc(Cl)c(Cl)c2)CC1.Cl	9	4

Source: ChEMBL document CHEMBL3232706, “SAR-studies on the importance of aromatic ring topologies in search for selective 5-HT(7) receptor ligands among phenylpiperazine hydantoin derivatives” (Eur J Med Chem, 2014)
